Measured values as given in patent publication US10195156B2, “Compounds and compositions for intracellular delivery of agents” (ModernaTX, Inc., priority 2015, dated 2019).
Like-named read-outs stand apart in the source and are kept apart here.

Legend:
[1] = tested on: modified luciferase expression; assay: Expression of Luc in different organs (liver, lung, spleen, femur) 6 hours after intravenous administration; format: in vivo; conditions: Table 3, mice, i.v., 0.5 mpk
Description: The efficacy of the nanoparticle compositions presented in Tables 1, 1a, 17-1, 19-1, 20-1 and 21-1 was further evaluated by measuring the expression of modified luciferase in the liver, lung, spleen, and femur upon administration of a given composition. Formulations were administered intravenously to mice (n=3) at a dosage of 0.5 mpk and bioluminescence measured after 6 hours. The standard MC3 formulation and a PBS control were also tested.

[2] = Particle size and polydispersity index of nanoparticle compositions (Zetasizer Nano ZS); format: physicochemical
How it was run: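 Zetasizer Nano ZS; samples in 1×PBS; read-out: particle size plus polydispersity index.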

[3] = Concentration of RNA in nanoparticle composition (ultraviolet-visible spectroscopy); format: physicochemical; conditions: Table 5, hEPO mRNA
Description: Ultraviolet-visible spectroscopy can be used to determine the concentration of a therapeutic and/or prophylactic agent (e.g., RNA) in nanoparticle compositions. 100 μL of the diluted formulation in 1×PBS is added to 900 μL of a 4:1 (v/v) mixture of methanol and chloroform. After mixing, the absorbance spectrum of the solution is recorded, for example, between 230 nm and 330 nm on a DU 800 spectrophotometer (Beckman Coulter, Beckman Coulter, Inc., Brea, Calif.). The concentration of therapeutic and/or prophylactic agent in the nanoparticle composition can be calculated based on the extinction coefficient of the therapeutic and/or prophylactic agent used in the composition and on the difference between the absorbance at a wavelength of, for example, 260 nm and the baseline value at a wavelength of, for example, 330 nm.

IP-10 = assay: Cytokine production induced by sample formulations: IP-10; format: in vivo; conditions: Table 4; mice, i.v., 0.5 mpk, 6 hours; in pg/mL (unit assumed)
How it was run: (§1)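 Cytokine levels were quantified at 6 hours in mice given the nanoparticle compositions i.v. at 0.5 mpk. MC3 standard formulation and PBS served as comparators.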

IL-6 = assay: Cytokine production induced by sample formulations: IL-6; format: in vivo; conditions: Table 4; mice, i.v., 0.5 mpk, 6 hours; in pg/mL (unit assumed)
How it was run: as §1

[4] = pKa of nanoparticle compositions; format: physicochemical
[5] = Tolerability / toxicity in rats (hEPO study); format: in vivo; conditions: FIG. 8, i.v., 2 mg/kg dose
[6] = tested on: luciferase (Luc) mRNA expression; assay: Expression of Luc induced by sample formulations, whole-body bioluminescence after intravenous administration; format: in vivo; conditions: for Total Flux 3 hours / Total Flux 6 hours / Total Flux 24 hours: Table 2; for Luc expression in mice compared with MC3 (in words): Table 7a
How it was run: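 Read-out is whole-body bioluminescence at 3, 6 and 24 h after a single intravenous dose of 0.5 mg/kg Luc mRNA in nanoparticle formulations. Groups of n=6 mice; PBS and standard MC3 formulation as references.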

[7] = Encapsulation efficiency of RNA (QUANT-IT RIBOGREEN RNA assay); format: physicochemical
How it was run: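 RiboGreen fluorescence (ex ~480, em ~520 nm) measured after 15 min at 37 °C on samples at ~5 μg/mL in TE, pH 7.5, ± 2% Triton X-100 solution. After blank subtraction, free RNA is given as intact-sample signal divided by disrupted-sample signal.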

hEPO mRNA expression = assay: Expression of hEPO in rats after intravenous administration; format: in vivo; conditions: for hEPO expression in rats (in words): FIG. 8, 2 mpk (Graph A)
Description: PBS (phosphate buffered saline) is used as control.
Formulations were prepared according to Table 5 and included mRNA encoding hEPO.
[…] After the 48 hour time point, livers and spleens were harvested and frozen.

LDL-c = assay: LDL levels in LDLr−/− mice after mRNA encoding the LDL receptor; format: in vivo, LDLR knockout mice
LDLr−/− mice = assay: Expression in LDLr−/− mice (LDLr dependence); format: in vivo; conditions: FIG. 9, FIG. 10
[8] = Lipid levels in liver and spleen 48 hours after administration; format: in vivo, rats; conditions: 48 hours after administration; for concentration at 48 h: Sprague-Dawley, rat, intravenous
How it was run: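 Rats (n=3 or 6) received lipid nanoparticle formulations intravenously at 0.2 mg/kg or 0.5 mg/kg. Liver and spleen were harvested and frozen 48 h after dosing, and the lipid amount remaining in each tissue was measured and expressed as a fraction of the dose.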

[9] = Table 1, rows without footnote mark
[10] = Table 1, rows without footnote mark (lipid:DOPE:cholesterol:PEG-DMG 40:20:38.5:1.5, Luc mRNA; MC3 standard formulation)
[11] = Table 5, hEPO mRNA, 40:20:38.5:1.5 Lipid:DOPE:Chol:PEG-DMG
[12] = Table 5, hEPO mRNA, 50:10:38.5:1.5 Lipid:DSPC:Chol:PEG-DMG
[13] = 40:20:38.5:1.5 Lipid:DOPE:Chol:PEG-DMG

SMILES | Total Flux Femur [1] | Total Flux Liver [1] | Total Flux Lung [1] | Total Flux Spleen [1] | PDI [2, 9] | Size (nm) [2, 10] | PDI [2, 11] | Size (nm) [2, 11] | Conc. [3, 13] | IP-10 (IP-10) | IL-6 (IL-6) | pKa [4, 9] | pKa [4, 11] | tolerability / toxicity in rats (in words) [5] | Total Flux 3 hours ([6]; mice, i.v., 0.5 mg/kg, 3 hours) | Total Flux 6 hours ([6]; mice, i.v., 0.5 mg/kg) | Total Flux 24 hours ([6]; mice, i.v., 0.5 mg/kg) | Luc expression in mice compared with MC3 (in words) [6] | EE (%) [7, 9] | EE (%) [7, 11] | other results
CCCCCCCCCCCCN(CCCCCCCCCCCC)CCN(CCCCCCCCCCCC)CCN1CCN(CCN(CCCCCCCCC)CCCCCCCCC)CC1 [Compound 23, N^1-(2-(4-(2-(Dinonylamino)ethyl)piperazin-1-yl)ethyl)-N^1,N^2,N^2-tridodecylethane-1,2-diamine] | 3.17E+06 | 4.94E+09 | 1.51E+07 | 2.95E+07 | 0.058 | 85.4 nm | 0.16 | 98.5 nm | 438.20 µg/mL | 3702 | 259 | 6.07 | 6.070 | toxic | 2.33E+10 | 3.40E+10 | 1.06E+09 | several fold higher | 82.9% | 77.19% | PDI [2, 12]: 0.11; Size (nm) [2, 12]: 95.2 nm; Conc. ([3]; 50:10:38.5:1.5 Lipid:DSPC:Chol:PEG-DMG): 454.58 µg/mL; pKa [4, 12]: 6.164; total flux after 3 hours, rank within the named table (in words) ([6]; mice, i.v., 0.5 mg/kg, 3 hours): highest flux after 3 hours; EE (%) [7, 12]: 51.46%
CCCCCCCCCCCCN(CCCCCCCCCCCC)CCN(CCCCCCCCCCCC)CC(=O)N1CCN(C(=O)CN(CCCCCCCCCCCC)CCCCCCCCCCCC)CC1 [Compound 11, 2-(Didodecylamino)-1-(4-(N-(2-(didodecylamino)ethyl)-N-dodecylglycyl)piperazin-1-yl)ethan-1-one] | 1.47E+06 | 1.67E+09 | 2.21E+06 | 7.21E+06 | 0.099 | 87.4 nm |  |  |  | 3305 | 250 | 6.54 |  | improved tolerability as compared to KL22 | 1.23E+10 | 3.81E+09 | 8.20E+08 |  | 99.5% |  | hEPO expression in rats (in words) (hEPO mRNA expression; rats, i.v.): comparable to MC3; LDL-c levels in LDLR knockout mice (in words) (LDL-c; FIG. 9 Graph B, mRNA encoding the LDL receptor, 0.5 and 1 mpk): found to drop; LDLr dependence of the lipid (in words) (LDLr−/− mice): LDLr independent lipid
CCCCCCCCCCCCN(CCCCCCCCCCCC)CCN(CCCCCCCCCCCC)CCN1CCN(CCN(CCCCCCCCCCCC)CCCCCCCCCCCC)CC1 [KL22, N1-[2-(didodecylamino)ethyl]-N1,N4,N4-tridodecyl-1,4-piperazinediethanamine, reference compound] |  |  |  |  |  |  |  |  |  |  |  |  |  | toxic |  |  |  |  |  |  | hEPO expression in rats (in words) (hEPO mRNA expression; rats, i.v.): do not express hEPO in rats; response vs control in vivo at 0.5 mg/kg (LDL-c; Mus musculus, Table 7b, LDLr−/− mice, 0.5 mpk, LDLr, read-out: LDL levels lipid/untreated LDLr−/− mice 0.5 mpk, LDLr): 51%
CCCCCCCCCCCCN(CCCCCCCCCCCC)CCN(CCCCCCCCCCCC)CCN1CCN(CCN(CCCCCC(=O)OCCCCC)CCCCCC(=O)OCCCCC)CC1 [Compound 14, Dipentyl 6,6′-((2-(4-(2-((2-(didodecylamino)ethyl)(dodecyl)amino)ethyl)piperazin-1-yl)ethyl)azanediyl)dihexanoate] |  | 2.62E+08 | 3.56E+06 | 1.46E+07 | 0.008 | 88.7 nm | 0.14 | 76.8 nm | 603.76 µg/mL | 209 | 17 | 6.31 | 6.308 |  | 9.86E+08 | 1.56E+09 | 1.02E+08 | significantly lower | 96.6% | 98.91% | hEPO (pg/mL) 3 hours (hEPO mRNA expression; Table 6, rats, i.v., 0.2 mg/kg or 0.5 mg/kg, 3 hours): 280973 pg/mL; hEPO (pg/mL) 6 hours (hEPO mRNA expression; Table 6, rats, i.v., 0.2 mg/kg or 0.5 mg/kg, 6 hours): 158520 pg/mL; hEPO (pg/mL) 24 hours (hEPO mRNA expression; Table 6, rats, i.v., 0.2 mg/kg or 0.5 mg/kg, 24 hours): 58805 pg/mL; Lipid/MC3 hEPO S.D. (rats) (hEPO mRNA expression; hEPO expression relative to MC3, S.D. rats, intravenous): 0.12; concentration at 48 h ([8]; liver, read-out: Lipid in liver): 3990 ng/g; concentration at 48 h ([8]; spleen, read-out: Lipid in spleen): 1620 ng/g; % remaining dose in liver ([8]; liver): 5.54%; % remaining dose in spleen ([8]; spleen): 0.15%
